The text below walks through data of patent US11044908B2, “Reactive antibacterial compound and preparation method thereof” (SHENZHEN UNIVERSITY, priority 2015, dated 2021).

SMILES strings stand for the structures. Converted amounts (≈) assume the structure as drawn.

Holding throughout (type): cell-based
In assay [1] the test system is E. coli (American Type Culture Collection ATCC 25922). In words: Minimum inhibitory concentration (MIC) test. To be noted: E. coli ATCC 25922; 24 h culture. The protocol:
(§1) The minimum inhibitory concentration (MIC) is the lowest concentration of antibacterial agents that can inhibit the visible growth of bacteria after 24 h culture in a specific environment. Methods for determining the minimum inhibitory concentration can be a constant broth dilution method, a trace broth dilution method, an agar dilution method or an E experiment.

For another assay, the system named is S. aureas (ATCC 6538). In words: Minimum inhibitory concentration (MIC) test. To be noted: 24 h culture. The protocol:
as §1

The subject of a further assay is E. coli. In words: Durable antibacterial activity of glass surfaces modified by antibacterial agents (plate/colony counting method).
Another assay has as its system S. aureas. The assay is described as above.

Consider `CC1(C)CC(NC(=O)OCC[N+](C)(C)CCCC(=O)[O-])CC(C)(CN=C=O)C1` (stereo not drawn) [Example 11], for which the “Minimum inhibitory concentration (MIC)” value came out at 10 mM (≈ 3980 µg/mL) in assay [1] and 8 mM (≈ 3180 µg/mL) with S. aureas (ATCC 6538). In addition, the “Antibacterial activity of modified glass surface (plate counting method)” value (“Antibacterial activity” for short) is 99.99% with E. coli (wash number 0); 99.8% in the assay with E. coli (wash number 10); 97.1% with E. coli (wash number 50); 94.5% in the assay on E. coli (wash number 100); 99.99% with S. aureas (wash number 0); 99.9% in the assay with S. aureas (wash number 10). The “Antibacterial activity” value with S. aureas (wash number 50) came to 98.3%; with S. aureas (wash number 100), 95.8%.

On to `Cc1cc(NC(=O)NC2CC(C)(C)CC(C)(CN=C=O)C2)cc(C)[n+]1CCCS(=O)(=O)[O-]` (stereo not drawn) [Example 9], for which the “Minimum inhibitory concentration (MIC)” value in assay [1] amounted to 10 mM (≈ 4670 µg/mL); in the assay with S. aureas (ATCC 6538), 8 mM (≈ 3730 µg/mL). The “Antibacterial activity” value in the assay with E. coli (wash number 0) came out at 99.99%; in the assay with E. coli (wash number 10), 99.8%; in the assay with E. coli (wash number 50) it was 97.1%; in the assay on E. coli (wash number 100), 94.3%; with S. aureas (wash number 0), 99.99%; with S. aureas (wash number 10) it was 99.9%. Also, the “Antibacterial activity” value in the assay on S. aureas (wash number 50) was 98.5%; with S. aureas (wash number 100) it was 95.2%.

In the case of `C[N+](C)(CCOC(=O)NCCCCCCN=C=O)CC(=O)[O-]` [Example 3], the “Minimum inhibitory concentration (MIC)” value in assay [1] is 11 mM (≈ 3470 µg/mL); in the assay on S. aureas (ATCC 6538), 8 mM (≈ 2520 µg/mL). The “Antibacterial activity” value in the assay on E. coli (wash number 0) came to 99.99%; in the assay with E. coli (wash number 10) it was 99.8%; in the assay on E. coli (wash number 50) it was 98.5%; with E. coli (wash number 100), 96.5%; in the assay with S. aureas (wash number 0), 99.99%; in the assay with S. aureas (wash number 10), 99.9%. Besides, the results for the “Antibacterial activity” value in the assay on S. aureas (wash number 50) and in the assay with S. aureas (wash number 100) were 99.0% and 97.2%, respectively.

Consider `C[N+](C)(CCCS(=O)(=O)[O-])CCNC(=O)NC1CCC(CC2CCC(N=C=O)CC2)CC1` (stereo not drawn) [Example 5], for which the entries for the “Minimum inhibitory concentration (MIC)” value (in assay [1]; with S. aureas (ATCC 6538)) were 10 mM (≈ 4730 µg/mL) and 7 mM (≈ 3310 µg/mL), respectively. In addition, the “Antibacterial activity” value was 99.99% in the assay with E. coli (wash number 0); 99.7% in the assay with E. coli (wash number 10); 99.0% in the assay on E. coli (wash number 50); 96.5% in the assay with E. coli (wash number 100); 99.99% in the assay on S. aureas (wash number 0); 99.9% with S. aureas (wash number 10). Also, the “Antibacterial activity” value with S. aureas (wash number 50) is 99.5%; in the assay with S. aureas (wash number 100), 98.5%.

`CC[N+](CC)(CCCS(=O)(=O)[O-])CCOC(=O)Nc1ccc(Cc2ccc(N=C=O)cc2)cc1` [Example 2]: the figures for the “Minimum inhibitory concentration (MIC)” value (in assay [1]; with S. aureas (ATCC 6538)) were 12 mM (≈ 5880 µg/mL) and 10 mM (≈ 4900 µg/mL), respectively. Also, the “Antibacterial activity” value with E. coli (wash number 0) came out at 99.99%; with E. coli (wash number 10), 99.9%; in the assay with E. coli (wash number 50), 97.3%; in the assay on E. coli (wash number 100) it was 95.9%; in the assay with S. aureas (wash number 0), 99.99%; in the assay with S. aureas (wash number 10), 99.9%. For the same compound, the results for the “Antibacterial activity” value with S. aureas (wash number 50) and in the assay on S. aureas (wash number 100) were 98.9% and 96.6%, respectively.

As to `CC1(C)CC(NC(=O)OCC[N+](C)(C)CCS(=O)(=O)[O-])CC(C)(CN=C=O)C1` (stereo not drawn) [Example 10], the “Minimum inhibitory concentration (MIC)” value was 12 mM (≈ 5030 µg/mL) in assay [1] and 9 mM (≈ 3780 µg/mL) in the assay with S. aureas (ATCC 6538). Besides, the “Antibacterial activity” value in the assay on E. coli (wash number 0) turned out to be 99.99%; in the assay on E. coli (wash number 10), 99.8%; with E. coli (wash number 50), 97.5%; in the assay with E. coli (wash number 100), 94.1%; with S. aureas (wash number 0) it was 99.99%; in the assay with S. aureas (wash number 10) it was 99.9%. For the same compound, the results for the “Antibacterial activity” value in the assay with S. aureas (wash number 50) and in the assay with S. aureas (wash number 100) were 98.9% and 95.3%, respectively.
